This passage reports EC50 results from patent publication US7087756B2, “Isoxazolopyridinones” (Novartis AG, priority 2001, dated 2006).

The target in this assay is Nurr1 receptor (Homo sapiens, UniProt P43354). The assay is described as follows: Transactivation of a Nurr1 responsive reporter gene in a midbrain dopaminergic cell line. The class given is cell-based. Conditions: read-out: EC50 of increase of reporter gene activity. The source says: The activity of the agents of the invention at the Nurr1 receptor can be determined in vitro in cellular assays:
Induction of the biological activity of the Nurr1 receptor by the agents of the invention can be measured by the transactivation of a Nurr1 responsive reporter gene in a midbrain dopaminergic cell line. The assay is based on the transcription promoting effect of Nurr1. The reporter gene can be activated both by Nurr1 monomers and Nurr1/RXR heterodimers. RXR is a frequent heterodimerisation partner of nuclear receptors and it has been shown that Nurr1 can form heterodimers with RXR (Zetterström RH et al. Mol. Endocrinol. 1996; 10:1656–1666).
(In general: In a reporter assay the amount or activity of a reporter protein is the signal.)

Chain of Nurr1 receptor (P43354 whole entry): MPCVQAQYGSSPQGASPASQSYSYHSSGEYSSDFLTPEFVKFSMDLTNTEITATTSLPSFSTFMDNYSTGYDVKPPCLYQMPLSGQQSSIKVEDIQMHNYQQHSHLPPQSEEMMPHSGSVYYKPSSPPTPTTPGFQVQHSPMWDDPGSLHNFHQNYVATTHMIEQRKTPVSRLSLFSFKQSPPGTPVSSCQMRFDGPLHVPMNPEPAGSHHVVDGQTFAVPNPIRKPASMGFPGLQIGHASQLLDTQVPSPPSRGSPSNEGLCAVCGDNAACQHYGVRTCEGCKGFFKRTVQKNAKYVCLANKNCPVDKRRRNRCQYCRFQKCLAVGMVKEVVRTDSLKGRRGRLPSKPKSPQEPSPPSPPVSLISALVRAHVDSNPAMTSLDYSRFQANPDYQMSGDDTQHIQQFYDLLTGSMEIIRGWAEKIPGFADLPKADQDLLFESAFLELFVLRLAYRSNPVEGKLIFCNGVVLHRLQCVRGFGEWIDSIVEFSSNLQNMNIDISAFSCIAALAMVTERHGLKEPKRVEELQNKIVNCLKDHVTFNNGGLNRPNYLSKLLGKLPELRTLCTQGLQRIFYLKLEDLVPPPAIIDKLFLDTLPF

Consider `COCCOCc1ccc(-c2cc3onc(-c4ccccc4)c3c(=O)n2C)cc1` [Example 7, 6-[4-(2-Methoxy-ethoxymethyl)-phenyl]-5-methyl-3-phenyl-5H-isoxazolo[4,5-c]pyridin-4-one], for which the EC50 (usually the midpoint of the concentration-response curve) amounted to 40 nM.

Consider `CN(C)Cc1ccc(-c2cc3onc(-c4ccccc4)c3c(=O)[nH]2)cc1` [Example 11, 6-(4-Dimethylaminomethyl-phenyl)-3-phenyl-5H-isoxazolo[4,5-c]pyridin-4-one], for which the EC50 was determined as 70 nM.
